# Results taken from ChEMBL document CHEMBL5614418, “Discovery of novel dihydropyrrolidone-thiadiazole compound crosstalk between the YycG/F two-component regulatory pathway and cell membrane homeostasis to combat methicillin-resistant Staphylococcus aureus” (Eur J Med Chem, 2024).
# Activity calls are given as the source filed them. The calls are words filed in the database; no cut-off is given here.
# How the values were obtained:
# Enterococcus faecalis = experiment: Antibacterial activity against Enterococcus faecalis OG1RF by broth microdilution method; assay type: functional
# Enterococcus faecium = experiment: Antibacterial activity against Enterococcus faecium EFM64 by broth microdilution method; assay type: functional
# Staphylococcus aureus [1] = experiment: Antibacterial activity against methicillin sensitive Staphylococcus aureus SA113 by broth microdilution method; assay type: functional
# [2] = Hemolytic activity against human erythrocytes measured after 1 hr; assay type: toxicity, cell-based, Erythrocyte
# [3] = Cytotoxicity against human LX2 cells incubated for 24 hrs by CCK8 assay; assay type: toxicity, cell-based; conditions: LX-2 cells
# [4] = tested on: Staphylococcus epidermidis; experiment: Antibacterial activity against Staphylococcus epidermidis SE1457 by broth microdilution method; assay type: functional
# Staphylococcus aureus [5] = experiment: Antibacterial activity against methicillin resistant Staphylococcus aureus USA300 infected in BALB/c mouse pneumonia model assessed as increase in mouse survival rate at 20 mg/kg, ip administered every 12 hrs for 3 times and measured after 48 hrs; assay type: functional, organism-based
# Staphylococcus aureus [6] = experiment: Antibacterial activity against methicillin resistant Staphylococcus aureus USA300 infected in BALB/c mouse pneumonia model assessed as log reduction in lung bacterial count at 20 mg/kg, ip administered every 12 hrs for 3 times and measured after 48 hrs; assay type: functional
# [7] = target: T1, Sensor protein kinase WalK (Staphylococcus aureus, UniProt Q9RDT3); experiment: Inhibition of Staphylococcus aureus YycG expressed in Escherichia coli preincubated for 30 mins followed by ATP addition and measured after 30 mins by kinase-Glo luminescent assay
# T1 sequence (Q9RDT3 whole entry): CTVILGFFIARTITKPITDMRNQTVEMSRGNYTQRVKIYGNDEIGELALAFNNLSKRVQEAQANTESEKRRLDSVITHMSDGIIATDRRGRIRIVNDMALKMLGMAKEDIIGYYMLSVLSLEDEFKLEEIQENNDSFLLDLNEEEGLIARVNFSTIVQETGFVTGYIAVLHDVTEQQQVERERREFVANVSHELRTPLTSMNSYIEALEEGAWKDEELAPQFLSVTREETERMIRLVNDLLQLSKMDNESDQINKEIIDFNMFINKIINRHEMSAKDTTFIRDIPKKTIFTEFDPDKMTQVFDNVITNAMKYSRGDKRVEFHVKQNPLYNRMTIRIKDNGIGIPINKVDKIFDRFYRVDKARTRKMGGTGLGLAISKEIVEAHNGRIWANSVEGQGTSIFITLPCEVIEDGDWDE
# Staphylococcus aureus [8] = experiment: Induction of resistance development in methicillin sensitive Staphylococcus aureus SA113 assessed as fold increase in MIC at 1/2 MIC incubated for 16 hrs after 20 serial passages; assay type: functional
# [9] = tested on: Staphylococcus epidermidis; experiment: Induction of resistance development in Staphylococcus epidermidis SE1457 assessed as fold increase in MIC at 1/2 MIC incubated for 16 hrs after 20 serial passages; assay type: functional
# Staphylococcus aureus [10] = experiment: Antibacterial activity against methicillin resistant Staphylococcus aureus USA300 by broth microdilution method; assay type: functional
# [11] = tested on: Staphylococcus epidermidis; experiment: Bactericidal activity against Staphylococcus epidermidis SE1457 assessed as planktonic cells killing by measuring log reduction in bacterial count at 8 times MIC measured after 24 hrs; assay type: functional, organism-based
# [12] = tested on: Staphylococcus epidermidis; experiment: Induction of matured biofilm eradication in Staphylococcus epidermidis SE1457 assessed as reduction in bacterial survival in biofilm at 8 times MIC incubated for 48 hrs by SYTO 9 staining based confocal fluorescence microscopic analysis; assay type: functional
# Staphylococcus aureus [13] = experiment: Bactericidal activity against Staphylococcus aureus USA300 assessed as planktonic cells killing by measuring log reduction in bacterial count at 8 times MIC measured after 24 hrs; assay type: functional, organism-based
# Staphylococcus aureus [14] = experiment: Antibacterial activity against methicillin resistant Staphylococcus aureus USA300 infected in BALB/c mouse wound model assessed as log reduction in wound bacterial load at 10 mg/kg, ip administered every 12 hrs for 3 times and measured after 48 hrs; assay type: functional
# Staphylococcus aureus [15] = experiment: Induction of matured biofilm eradication in methicillin resistant Staphylococcus aureus YUSA145 assessed as reduction in bacterial survival in biofilm at 8 times MIC incubated for 48 hrs by SYTO 9 staining based confocal fluorescence microscopic analysis; assay type: functional
# [16] = tested on: Staphylococcus epidermidis; experiment: Antibacterial activity against methicillin resistant Staphylococcus epidermidis SE1457 infected in BALB/c mouse wound model assessed as log reduction in wound bacterial load at 10 mg/kg, ip administered every 12 hrs for 3 times and measured after 48 hrs; assay type: functional
Structure (SMILES),MIC (Enterococcus faecalis),MIC (Enterococcus faecium),MIC (Staphylococcus aureus [1]),HC50 at 1 h [2],CC50 at 24 h [3],MIC [4],other results
O=C(C1=C(O)C(=O)N(c2nnc(SCc3ccccc3)s2)C1c1ccc(O)cc1O)c1cc2ccccc2o1 (stereo not given),> 100 µM,> 100 µM,> 100 µM,> 200 µM,> 100 µM,> 100 µM,–
COc1cc(C2C(C(=O)c3cc4ccccc4o3)=C(O)C(=O)N2c2nnc(SCc3ccccc3)s2)ccc1O (stereo not given),> 100 µM,> 100 µM,> 100 µM,> 200 µM,> 100 µM,> 100 µM,–
O=C(O)COc1ccc(C2C(C(=O)c3cc4ccccc4o3)=C(O)C(=O)N2c2nnc(SCc3ccccc3Cl)s2)cc1 (stereo not given),> 100 µM,> 100 µM,> 100 µM,> 200 µM,> 100 µM,> 100 µM,–
COC(=O)COc1ccc(C2C(C(=O)c3cc4ccccc4o3)=C(O)C(=O)N2c2nnc(SCc3ccccc3Cl)s2)cc1 (stereo not given),> 100 µM,> 100 µM,> 100 µM,> 200 µM,> 100 µM,> 100 µM,–
CN[C@H](CC(C)C)C(=O)N[C@H]1C(=O)N[C@@H](CC(N)=O)C(=O)N[C@H]2C(=O)N[C@H]3C(=O)N[C@H](C(=O)N[C@H](C(=O)O)c4cc(O)cc(O)c4-c4cc3ccc4O)[C@H](O)c3ccc(c(Cl)c3)Oc3cc2cc(c3O[C@@H]2O[C@H](CO)[C@@H](O)[C@H](O)[C@H]2O[C@H]2C[C@](C)(N)[C@H](O)[C@H](C)O2)Oc2ccc(cc2Cl)[C@H]1O [VANCOMYCIN],–,–,–,–,–,–,Activity (Staphylococcus aureus [5]): Active; log(activity) (Staphylococcus aureus [6]): 2
O=C(C1=C(O)C(=O)N(c2nnc(SCc3ccccc3Cl)s2)C1c1ccccc1O)c1cc2ccccc2s1 (stereo not given),> 100 µM,> 100 µM,> 100 µM,> 200 µM,> 100 µM,> 100 µM,–
O=C(C1=C(O)C(=O)N(c2nnc(SCc3ccccc3)s2)C1c1ccccc1O)c1cc2ccccc2s1 (stereo not given),> 100 µM,> 100 µM,> 100 µM,> 200 µM,> 100 µM,> 100 µM,–
COc1cc(C2C(C(=O)c3cc4ccccc4o3)=C(O)C(=O)N2c2nnc(SCc3ccccc3Cl)s2)ccc1O (stereo not given),> 100 µM,> 100 µM,> 100 µM,> 200 µM,> 100 µM,25 µM,IC50 [7]: 46.1 µM
CC(=O)NC[C@H]1CN(c2ccc(N3CCOCC3)c(F)c2)C(=O)O1,–,–,–,–,–,–,fold change (FC) (Staphylococcus aureus [8]): 4; fold change (FC) [9]: 4
O=C(C1=C(O)C(=O)N(c2nnc(SCc3ccccc3Cl)s2)C1c1cccc(O)c1)c1cc2ccccc2o1 (stereo not given),> 100 µM,> 100 µM,> 100 µM,> 200 µM,> 100 µM,> 100 µM,–
CCCCCCCCCC(=O)N[C@@H](Cc1c[nH]c2ccccc12)C(=O)N[C@H](CC(N)=O)C(=O)N[C@@H](CC(=O)O)C(=O)N[C@@H]1C(=O)NCC(=O)N[C@@H](CCCN)C(=O)N[C@@H](CC(=O)O)C(=O)N[C@H](C)C(=O)N[C@@H](CC(=O)O)C(=O)NCC(=O)N[C@H](CO)C(=O)N[C@@H]([C@H](C)CC(=O)O)C(=O)N[C@@H](CC(=O)c2ccccc2N)C(=O)O[C@@H]1C,2 µM,2 µM,2 µM,–,–,2 µM,MIC (Staphylococcus aureus [10]): 2 µg/mL; Activity [11]: inactive; Activity [12]: <50%; Activity (Staphylococcus aureus [13]): inactive; log(activity) (Staphylococcus aureus [14]): 1; Activity (Staphylococcus aureus [15]): <50%; log(activity) [16]: 1
O=C(C1=C(O)C(=O)N(c2nnc(SCc3ccccc3)s2)C1c1ccc(O)c(O)c1)c1cc2ccccc2o1 (stereo not given),> 100 µM,> 100 µM,> 100 µM,> 200 µM,> 100 µM,> 100 µM,–
